Measured values reported in ChEMBL document CHEMBL1201862, “PubChem BioAssay data set” (2004).
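Values below derive from 48-hour exposures of cells grown in 96-well plates, with endpoints linearly interpolated between the two concentrations bracketing the appropriate inhibition level. GI50 marks 50% less growth.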 Activity calls are given as the source filed them. Rule as the data show it: active = GI50 up to about 1.1 µM and inactive = higher.

What was measured:
Experiment in all cases: NCI-60 cell line screen, 48 h
SK-MEL-2 = tested on: SK-MEL-2
HCT-15 = tested on: HCT-15
MDA-MB-231 = tested on: MDA-MB-231
OVCAR-5 = tested on: OVCAR-5
CAKI-1 = tested on: CAKI-1
DU-145 = tested on: DU-145
SK-MEL-28 = tested on: SK-MEL-28
A549 = tested on: A549
KM12 = tested on: KM12
SF-539 = tested on: SF-539
M14 = tested on: M14
UO-31 = tested on: UO-31
SW-620 = tested on: SW-620
HL-60 = tested on: HL-60
HOP-92 = tested on: HOP-92
SK-OV-3 = tested on: SK-OV-3
UACC-257 = tested on: UACC-257
K562 = tested on: K562
SNB-75 = tested on: SNB-75
RXF 393 = tested on: RXF 393

| SMILES | GI50 (SK-MEL-2) | GI50 (HCT-15) [µM] | GI50 (MDA-MB-231) | GI50 (OVCAR-5) | GI50 (CAKI-1) | GI50 (DU-145) | GI50 (SK-MEL-28) | GI50 (A549) | GI50 (KM12) | GI50 (SF-539) | GI50 (M14) | GI50 (UO-31) | GI50 (SW-620) | GI50 (HL-60) | GI50 (HOP-92) | GI50 (SK-OV-3) | GI50 (UACC-257) | GI50 (K562) | GI50 (SNB-75) | GI50 (RXF 393) |
| --- | --- | --- | --- | --- | --- | --- | --- | --- | --- | --- | --- | --- | --- | --- | --- | --- | --- | --- | --- | --- |
| C=CCN1C[C@H](C)N([C@H](c2ccc(C(=O)N(CC)CCO)cc2)c2cccc(OC)c2)C[C@H]1C | > 100 µM (inactive) | > 100 | > 100 µM (inactive) | > 100 µM (inactive) | > 100 µM (inactive) | > 100 µM (inactive) | > 100 µM (inactive) | > 100 µM (inactive) | > 100 µM (inactive) | > 100 µM (inactive) | > 100 µM (inactive) | > 100 µM (inactive) | > 100 µM (inactive) | > 100 µM (inactive) | 13.6 µM (inactive) | 71.8 µM (inactive) | 47 µM (inactive) | – | – | – |
| O=C(O)CN1CCN2CCOCCOCCN(CC1)CCN(CC(=O)O)CC2 | > 100 µM (inactive) | > 100 | > 100 µM (inactive) | > 100 µM (inactive) | > 100 µM (inactive) | > 100 µM (inactive) | > 100 µM (inactive) | > 100 µM (inactive) | > 100 µM (inactive) | > 100 µM (inactive) | > 100 µM (inactive) | > 100 µM (inactive) | > 100 µM (inactive) | – | > 100 µM (inactive) | > 100 µM (inactive) | > 100 µM (inactive) | > 100 µM (inactive) | > 100 µM (inactive) | – |
| CC(=O)C1COC(O)C1C (configuration not stated) | 15.3 µM (inactive) | 18.5 | 22.2 µM (inactive) | 27.2 µM (inactive) | 22.8 µM (inactive) | 28.3 µM (inactive) | 19.5 µM (inactive) | 53.8 µM (inactive) | 13.6 µM (inactive) | 17.5 µM (inactive) | 23.9 µM (inactive) | 17.7 µM (inactive) | 18 µM (inactive) | 12.4 µM (inactive) | 27.2 µM (inactive) | 31 µM (inactive) | 32.2 µM (inactive) | 26.5 µM (inactive) | 23.3 µM (inactive) | – |
| Cn1c2ccccc2c(=S)c2ccccc21 | > 100 µM (inactive) | > 100 | > 100 µM (inactive) | > 100 µM (inactive) | > 100 µM (inactive) | > 100 µM (inactive) | > 100 µM (inactive) | > 100 µM (inactive) | > 100 µM (inactive) | > 100 µM (inactive) | > 100 µM (inactive) | > 100 µM (inactive) | > 100 µM (inactive) | – | > 100 µM (inactive) | > 100 µM (inactive) | > 100 µM (inactive) | > 100 µM (inactive) | > 100 µM (inactive) | > 100 µM (inactive) |
| Oc1c(Br)cc(/C=C/c2cccc(/C=C/c3cc(Br)c(O)c(Br)c3)n2)cc1Br | 4.89 µM (inactive) | 6.22 | 14.8 µM (inactive) | 17.6 µM (inactive) | 11.5 µM (inactive) | < 0.01 µM (active) | 12.1 µM (inactive) | 3.72 µM (inactive) | 5.66 µM (inactive) | 13.7 µM (inactive) | 13.8 µM (inactive) | 15.1 µM (inactive) | 17.7 µM (inactive) | 2.03 µM (inactive) | 12.1 µM (inactive) | 20.6 µM (inactive) | 15.7 µM (inactive) | 3.3 µM (inactive) | 4.34 µM (inactive) | – |
| CC(C)(CO)NC(=O)c1cccs1 | > 100 µM (inactive) | > 100 | > 100 µM (inactive) | > 100 µM (inactive) | > 100 µM (inactive) | > 100 µM (inactive) | > 100 µM (inactive) | > 100 µM (inactive) | > 100 µM (inactive) | – | > 100 µM (inactive) | > 100 µM (inactive) | > 100 µM (inactive) | > 100 µM (inactive) | > 100 µM (inactive) | > 100 µM (inactive) | > 100 µM (inactive) | > 100 µM (inactive) | – | – |
| CN(C)/C=N/S(=O)(=O)c1nn2c(C=O)c(-c3ccc(Cl)cc3)nc2s1 | 7.11 µM (inactive) | 1.61 | 2.11 µM (inactive) | 1.75 µM (inactive) | 0.995 µM (active) | 2.12 µM (inactive) | 1.62 µM (inactive) | 8.26 µM (inactive) | 3.63 µM (inactive) | 2.13 µM (inactive) | 0.962 µM (active) | 1.02 µM (active) | 0.444 µM (active) | – | 2.34 µM (inactive) | 15.8 µM (inactive) | 2.7 µM (inactive) | 0.403 µM (active) | 11.2 µM (inactive) | 1.51 µM (inactive) |
| Nc1nc(NNc2ccccc2F)cc(=O)[nH]1 | – | > 100 | > 100 µM (inactive) | > 100 µM (inactive) | – | > 100 µM (inactive) | > 100 µM (inactive) | > 100 µM (inactive) | > 100 µM (inactive) | > 100 µM (inactive) | > 100 µM (inactive) | > 100 µM (inactive) | > 100 µM (inactive) | 56.8 µM (inactive) | – | – | > 100 µM (inactive) | 58.6 µM (inactive) | – | – |
| O=c1cc(N2CCN(c3cc(=O)n4ccccc4n3)CC2)oc2ccccc12 | > 100 µM (inactive) | 30.6 | 61.9 µM (inactive) | > 100 µM (inactive) | 34 µM (inactive) | > 100 µM (inactive) | > 100 µM (inactive) | 32.3 µM (inactive) | 35.4 µM (inactive) | > 100 µM (inactive) | 34.7 µM (inactive) | 38.1 µM (inactive) | 29.7 µM (inactive) | – | 72.4 µM (inactive) | > 100 µM (inactive) | > 24 µM (inactive) | 47.1 µM (inactive) | 9.06 µM (inactive) | 36.1 µM (inactive) |
| CCOC(=O)C(NC(=O)c1cccc(Cl)c1)(Nc1ccc(S(=O)(=O)Nc2cc(C)nc(C)n2)cc1)C(F)(F)F (configuration not stated) | > 100 µM (inactive) | > 100 | > 100 µM (inactive) | > 100 µM (inactive) | > 100 µM (inactive) | > 100 µM (inactive) | > 100 µM (inactive) | > 100 µM (inactive) | > 100 µM (inactive) | > 100 µM (inactive) | > 100 µM (inactive) | > 100 µM (inactive) | > 100 µM (inactive) | > 100 µM (inactive) | 80.5 µM (inactive) | > 100 µM (inactive) | > 100 µM (inactive) | – | > 100 µM (inactive) | – |
| O=C1CC(C(=O)O)Cc2c(Br)ccc(O)c21 (configuration not stated) | > 100 µM (inactive) | > 100 | > 100 µM (inactive) | > 100 µM (inactive) | > 100 µM (inactive) | > 100 µM (inactive) | > 100 µM (inactive) | > 100 µM (inactive) | > 100 µM (inactive) | – | > 100 µM (inactive) | > 100 µM (inactive) | – | > 100 µM (inactive) | 29 µM (inactive) | > 100 µM (inactive) | > 100 µM (inactive) | > 100 µM (inactive) | – | > 100 µM (inactive) |
| Cc1ccc(/C=C2\CN(C)CC3C2=NN(c2ccccc2)C3c2ccc(C)cc2)cc1 (configuration not stated) | 29.4 µM (inactive) | > 100 | > 100 µM (inactive) | > 10 µM (inactive) | > 100 µM (inactive) | > 100 µM (inactive) | > 100 µM (inactive) | > 100 µM (inactive) | > 100 µM (inactive) | – | 57.4 µM (inactive) | > 100 µM (inactive) | > 100 µM (inactive) | – | > 100 µM (inactive) | 63.8 µM (inactive) | > 100 µM (inactive) | 46.7 µM (inactive) | – | 34.4 µM (inactive) |
| O=c1[nH]nc(Cc2ccccc2)n1N=C1CCCCC1 | > 100 µM (inactive) | > 100 | > 100 µM (inactive) | 3.78 µM (inactive) | > 100 µM (inactive) | > 100 µM (inactive) | > 100 µM (inactive) | > 100 µM (inactive) | > 100 µM (inactive) | – | > 100 µM (inactive) | > 100 µM (inactive) | > 100 µM (inactive) | > 100 µM (inactive) | > 100 µM (inactive) | – | > 100 µM (inactive) | > 100 µM (inactive) | – | > 100 µM (inactive) |
| O=C(COc1ccc(OCC(=O)N2C(=O)CN(c3ccc(Cl)cc3)C2=S)cc1)N1C(=O)CN(c2ccc(Cl)cc2)C1=S | 13.3 µM (inactive) | 29.9 | 19.8 µM (inactive) | 36.1 µM (inactive) | 19.6 µM (inactive) | 43.2 µM (inactive) | 36.3 µM (inactive) | 21.5 µM (inactive) | 18.9 µM (inactive) | – | 29 µM (inactive) | 29 µM (inactive) | 31.3 µM (inactive) | – | 21.8 µM (inactive) | 26.9 µM (inactive) | 27.8 µM (inactive) | 29.3 µM (inactive) | 40.6 µM (inactive) | 22.8 µM (inactive) |
| CC(C)=CCC[C@](C)(O[C@@H]1O[C@H](CO)[C@@H](O)[C@H](O)[C@H]1O)[C@H]1CC[C@]2(C)[C@@H]1[C@H](O)C[C@@H]1[C@@]3(C)CC[C@H](O)C(C)(C)[C@@H]3[C@@H](O[C@@H]3O[C@H](CO)[C@@H](O)[C@H](O)[C@H]3O[C@@H]3O[C@@H](C)[C@H](O)[C@@H](O)[C@H]3O)C[C@]12C.CC(C)=CCC[C@](C)(O[C@@H]1O[C@H](CO)[C@@H](O)[C@H](O)[C@H]1O)[C@H]1CC[C@]2(C)[C@@H]1[C@H](O)C[C@@H]1[C@@]3(C)CC[C@H](O)C(C)(C)[C@@H]3[C@@H](O[C@@H]3O[C@H](CO)[C@@H](O)[C@H](O)[C@H]3O[C@@H]3O[C@H](CO)[C@@H](O)[C@H](O)[C@H]3O)C[C@]12C | > 75 µM (inactive) | > 75 | > 75 µM (inactive) | > 75 µM (inactive) | > 75 µM (inactive) | > 75 µM (inactive) | > 75 µM (inactive) | > 75 µM (inactive) | > 75 µM (inactive) | > 75 µM (inactive) | > 75 µM (inactive) | > 75 µM (inactive) | > 75 µM (inactive) | > 75 µM (inactive) | > 75 µM (inactive) | > 75 µM (inactive) | > 75 µM (inactive) | > 75 µM (inactive) | > 75 µM (inactive) | – |
